From publication PMC11190223, “Identification of sulfakinin receptor regulating feeding behavior and hemolymph trehalose homeostasis in the silkworm, Bombyx mori” (Scientific Reports, 2024)
Where no end group is shown, it is not given here. [ ]: non-standard residue; d: D form. sY = N[C@@H](Cc1ccc(OS(=O)(=O)O)cc1)C(=O)O

Tests used:
[1] = tested on: BNGR-A9; experiment: cAMP ELISA in BNGR-A9-expressing HEK293 cells; format: cell-based, Bombyx mori; details: 1 μM, 15 min, IBMX pretreatment (300 μM, 1 h)
Description: 1. Measurement of cAMP accumulation
Cells were seeded in 24-well plates and incubated overnight. Prior to treatment, cells
were pre-treated with the phosphodiesterase inhibitor IBMX (300 μM) for 1 hour.
Subsequently, cells were treated with different Bombyx neuropeptides for 15 minutes.
The reaction was terminated by removing the medium, followed by the addition of
ice-cold PBS and a single wash. Cell lysis was performed, and cAMP formation was
assessed using a competitive binding technique based on an enzyme-linked
immunosorbent assay (ELISA) (Parameter cAMP assay, R&D, Minneapolis, USA)
following the manufacturer's instructions. The results were expressed as the fold
change in cAMP concentration compared to the control concentration in the
2. Determination of Glucose of hemolymph
Silkworm larvae were anesthetized by cooling on ice, after which hemolymph was
collected using a micropipette from an incision made at the abdominal leg.
Approximately 5 mg of phenylthiourea (to achieve a final concentration of 2.5% w/v)
was added to the hemolymph in a 1.5 ml Eppendorf tube to inhibit clotting.
Hemolymph samples from 10 insects were then centrifuged at 12,000 rpm for 10
minutes at 4 °C to sediment any particulates. The glucose concentration in the
hemolymph was determined using a glucose oxidase-peroxidase kit (Shanghai […]
by stimulation with 1μM BmnsSK or BmsSK for 15 min, and the cAMP level was determined […]

[2] = tested on: BNGR-A9; experiment: IP3 ELISA in BNGR-A9-expressing HEK293 cells; format: cell-based, Bombyx mori; details: 1 μM, 1 h
Description: Figure 6 Bombyx sulfated-sulfakinin mediated activation of BNGR-A9 via Gαq signaling pathway. (A and B) Effects of Gαq inhibitor FR900359 (1 μM) on the CRE-driven luciferase activities in BNGR-A9 expressing HEK293 (A) and BmN (B) cells. BNGR-A9 stable transfected cells were pretreated with FR900359 (1 μM) for 30 min and challenged with 100 nM BmsSK for 4 h. (C) Accumulation of IP3 in HEK293 cells expressing BNGR-A9 in response to Bombyx neuropeptides was assessed. Cells were pre-treated with serum-free DMEM for 1 h, followed by stimulation with 1 μM of the indicated Bombyx neuropeptides for 1 h. The level of IP3 in the supernatant was then determined using the IP3 immunoassay detection kit. (D, E) Effects of Gαq/PLC inhibitors on Flag-BNGR-A9 mediated increase of intracellular Ca^2+ level. Flag-BNGR-A9 expressing HEK293 (D) and BmN (E) cells were pretreated with Gαq inhibitorFR900359 (1 μM), U73122 (5 μM) for 30 min, and incubated with Fura-2 AM for 30 min, followed by challenging with 100 nM BmsSK. (F, G) effects of protein kinase A (PKA) inhibitor KT5720 on BmsSK initiated Ca^2+ in Flag-BNGR-A9-expressing cells. […] After 30 min incubation with Fura-2 AM, the cells were treated with 100 nM BmsSK, and detected with a fluorescence spectrometer. […] Data were analyzed by using a Student’s t-test (*p < 0.05; **p < 0.01). […]

[3] = tested on: BNGR-A9; experiment: Receptor internalization assay, BNGR-A9-EGFP; format: cell-based, Bombyx mori; details: BNGR-A9-EGFP stably expressing HEK293 cells; 100 nM, 30 min; fluorescence microscopy
Description: The entire coding region of BNGR-A9 (NM_001134272.1) was obtained by PCR and subsequently cloned into pEGFP-N1 and pCMV-Flag vectors using the primers listed in Table S1. The Flag-BNGR-A9 construct was generated for functional assays, including CRE-luciferase, calcium mobilization, and ERK phosphorylation assays, while BNGR-A9-EGFP was created for receptor visualization purposes. Additionally, for expression in the BmN cell system, the BNGR-A9 gene was inserted into the pIZT/V5-His vector. All constructs were validated by DNA sequencing.
BNGR-A9-EGFP stably expressing HEK293 cells were seeded onto coverslips and incubated overnight under normal growth conditions. Subsequently, the cells were starved with fresh serum-free DMEM for 1 h and treated with either 100 nM BmsSK or BmnsSK. After a 30-min incubation period, the cells were washed three times with ice-cold PBS and fixed with 3% paraformaldehyde for 10 min at room temperature. The images were taken by a fluorescence microscopy (Leica, Germany).

[4] = tested on: ERK phosphorylation in silkworm brains; experiment: ERK phosphorylation (western blot), silkworm larval brains ex vivo; design: species or system Bombyx mori
Description: HEK293 cells with Flag-BNGR-A9 were exposed to 100 nM BmsSK for different durations and then lysed using RIPA buffer (Beyotime, China). For ex vivo assays, brains from 5th instar silkworm larvae were treated with BmsSK (100 nM) for 1, 2, or 8 h, either with a pre-treatment of Gαq inhibitor FR900359 for 30 min or without it. After treatment, samples were lysed, homogenized, and their protein concentrations were determined with a BCA protein kit (Takara, Japan). For western blot analysis, equal amounts of protein lysate were used. Protein expression was analyzed using specific primary antibodies: rabbit monoclonal antibodies for total and phosphorylated ERK from Cell Signaling Technology (MA, USA).

[5] = tested on: BNGR-A9; experiment: ERK1/2 phosphorylation (western blot), BNGR-A9-expressing HEK293 cells; format: cell-based, Bombyx mori
[6] = Hemolymph trehalose determination; format: in vivo, Bombyx mori
Description: Silkworm larvae were anesthetized by cooling on ice, after which hemolymph was collected using a micropipette from an incision made at the abdominal leg. Approximately 5 mg of phenylthiourea (to achieve a final concentration of 2.5% w/v) was added to the hemolymph in a 1.5 ml Eppendorf tube to inhibit clotting. Hemolymph samples from 10 insects were then centrifuged at 12,000 rpm for 10 min at 4 °C to sediment any particulates. For trehalose measurement, the hemolymph underwent pretreatment with trehalase (Megazyme, Chicago, US), following the manufacturer’s protocol. Subsequently, the sugar concentration in the hemolymph was assessed using a glucose oxidase–peroxidase kit (Shanghai Rongsheng Biotech, China).

## BmsSK: Bombyx mori sulfated-sulfakinin, synthetic; sulfated version of GDDTFDD^8YGHLRF-NH2 (GDDTFDD[sY]GHLRF-NH2; N-terminus assumed; SMILES CC(C)C[C@H](NC(=O)[C@H](Cc1c[nH]cn1)NC(=O)CNC(=O)[C@H](Cc1ccc(OS(=O)(=O)O)cc1)NC(=O)[C@H](CC(=O)O)NC(=O)[C@H](CC(=O)O)NC(=O)[C@H](Cc1ccccc1)NC(=O)[C@@H](NC(=O)[C@H](CC(=O)O)NC(=O)[C@H](CC(=O)O)NC(=O)CN)[C@@H](C)O)C(=O)N[C@@H](CCCNC(=N)N)C(=O)N[C@@H](Cc1ccccc1)C(N)=O)
[1]
  Intracellular cAMP level: remained unchanged
[2]
  Intracellular IP3 level: significant elevation
[3]
  Receptor internalization: rapid and significant receptor redistribution within the cytoplasm
[4]; 5th instar silkworm brains, 100 nM BmsSK for 1, 2 or 8 h
  Time of peak ERK1/2 phosphorylation: 2 h
[4]; silkworm brains, 100 nM BmsSK
  ERK1/2 phosphorylation: quick and dose-dependent increase in ERK1/2 phosphorylation
[5]; HEK293 cells expressing BNGR-A9, serum-starved 1 h
  ERK1/2 phosphorylation: quick and dose-dependent increase in ERK1/2 phosphorylation
[5]; HEK293 cells, 10 nM BmsSK time course (Fig. 7A)
  Time of peak ERK1/2 phosphorylation: 5 min
[6]; BmsSK final 10 nM, 24 h after EGFP dsRNA injection, hemolymph collected 24 h later
  Hemolymph trehalose level: significant increase in trehalose levels
[6]; following BmsSK injection (restated in discussion)
  Hemolymph trehalose level: significant rise in circulating hemolymph trehalose
